Source: US8158596B2, “Materials and methods for FOXP3 tumor suppression” (The Regents of the University of Michigan, priority 2007, dated 2012)

What was measured:
[1] = tested on: FOXP3 gene; assay: FOXP3 gene induction in prostate cancer cell lines by methyltransferase inhibitor; assay type: cell-based, human; details: prostate cancer cell lines PC3 and Du145
Description: Using a quantitative pyrosequencing method for FOXP3 analysis, the level of methylation in both the intronic CpG motif and the CpG island was quantitated in the promoter region of FOXP3, using DNA from 17 cases of micro-dissected normal and cancerous tissues. […] Morover, the increase in methylation strongly correlate with reduction of FOXP3 expression. To verify the significance of DNA methylation, prostate cancer cell lines PC3 and Du145 were treated with a methyltransferase inhibitor (5-aza-2′-deoxycytidine (5-AZA)).

[2] = molecular target: T1, p38 (Mus musculus, UniProt P47811); assay type: cell-based; details: 4T1 cells; anisomycin 1 μg/ml, PMA 0.5 μg/ml
T1 construct: Western blots of the cell lysates were obtained using antibodies specific for phospho-ATF2, phospho-p38; endogenous in cells; host or cells: 4T1 mouse mammary tumor cells
Description: 4T1 cells were treated with either vehicle control, anisomycin (1 μg/ml) or PMA (0.5 μg/ml). Western blots of the cell lysates were obtained using antibodies specific for phospho-ATF2, phospho-p38, ATF2, phospho-JNK1/2, phospho-c-Jun. Levels of beta-actin were used as loading controls.
Cells of a mammary tumor cell line were treated with anisomycin in conjunction with inhibitors of overlapping specificity. […] Western blots of the cell lysates were obtained using antibodies specific for phosphor-ATF2, phospho-p38, ATF2, phospho-JNK1/2, phospho-c-Jun. Levels of beta-actin were used as loading controls.

[3] = tested on: c-Jun; assay: Western blot of phospho-c-Jun in 4T1 cells; assay type: cell-based, mouse; details: for activation of c-Jun: anisomycin 1 μg/ml, PMA 0.5 μg/ml
Description: (§1) To identify the mechanism by which anisomycin induced FoxP3, the activation of ATF2, p38, and JNK upon treatment with either anisomycin or PMA was compared. 4T1 cells were treated with either vehicle control, anisomycin (1 μg/ml) or PMA (0.5 μg/ml). Western blots of the cell lysates were obtained using antibodies specific for phospho-ATF2, phospho-p38, ATF2, phospho-JNK1/2, phospho-c-Jun. Levels of beta-actin were used as loading controls.
(§2) Cells of a mammary tumor cell line were treated with anisomycin in conjunction with inhibitors of overlapping specificity. Specifically, 4T1 cells were treated with vehicle control, anisomycin (1 μg/ml) or PMA (0.5 μg/ml) in the presence or absence of inhibitors (2 μg/ml): SP10096 (SP), SB203580 (SB), and PD9786 (PD). Western blots of the cell lysates were obtained using antibodies specific for phosphor-ATF2, phospho-p38, ATF2, phospho-JNK1/2, phospho-c-Jun. Levels of beta-actin were used as loading controls.
(§3) In order to study the mechanism of ATF2/c-Jun-mediated induction of FoxP3, chromatin immunoprecipitation (ChIP) was carried out as described in (Im et al., Nat Med 5: 412-417 (1999)) to identify an anisomycin-inducible binding site of the FoxP3 locus. Briefly, 4TI cells were treated with vehicle or anisomycin for 2 hours. The cells were sonicated and the chromatin was fixed with 1% paraformaldehyde. Anti-phospho-c-Jun or anti-phosphor-ATF2 antibodies or control rabbit IgG were used to precipitate chromatin associated with these proteins. The amounts of the specific DNA fragments were quantitated by real-time PCR and normalized against the genomic DNA preparation from the same cells. […] Untreated 4T1 cells barely had detectable amounts of phospho-ATF2 and phospho-c-Jun in the nuclei.

[4] = tested on: ATF2; assay: Western blot of phospho-ATF2 in 4T1 cells; assay type: cell-based, mouse; details: for activation of ATF2: anisomycin 1 μg/ml, PMA 0.5 μg/ml
Description: as §1, §2, §3

[5] = tested on: JNK; assay: Western blot of phospho-JNK1/2 in 4T1 cells; assay type: cell-based, mouse; details: for activation of JNK: anisomycin 1 μg/ml, PMA 0.5 μg/ml
Description: as §1, §2

[6] = tested on: FoxP3; assay: Anisomycin-induced FoxP3 induction in 4T1 cells with kinase inhibitors; assay type: cell-based, mouse; details: inhibitor 2 μg/ml with anisomycin 1 μg/ml
[7] = tested on: breast cancer cell lines MCF-7, BT474, TSA; assay: Killing of breast cancer cell lines / MTT viability assay; assay type: cell-based, human, mouse
Description: Given the impact of FOXP3 activity on tumor growth and cell death, these compounds were also tested for their ability to kill cancer cells. […] The IC50 ranges between 30-100 ng/ml.
To determine whether anisomycin treatment causes apoptosis of breast cancer cells, the cytotoxic effect of anisomycin on several of breast cancer cell lines was measured by MTT assay. 10^4 cells/well of mouse cell line (TSA) or human breast cancer cell lines (TB474 or MCF7) were cultured in the presence of 25, 50, 100, 200, 400, or 800 ng/ml anisomycin for 48 hours. The amounts of viable cells were determined by MTT assay, with viability of the untreated cells defined as 100%. Both mouse (TSA) and human breast cancer cell lines (BT474, MCF-7) were highly susceptible to anisomycin, with an IC50 between 50-100 […].

[8] = tested on: TSA cells; assay: Apoptosis: activated caspase 3 staining and DNA content; assay type: cell-based, mouse
From the text: Cells were stained for activated Capsase 3 and also tested for DNA contents. The % of gated cells was apoptotic based on their sub-2C DNA contents.

[9] = tested on: FOXP3 transcripts; assay: FOXP3 transcripts in primary mammary epithelial cultures of ATF2+/+ and ATF2-/- mice; assay type: cell-based, mouse
Description: ATF2± mice were obtained from the frozen embryo bank of the Jackson Laboratories and were crossed to produce ATF2+/+ and the ATF2−/− mice. […] Two independent primary cultures were obtained from two ATF2−/− females. Specifically, mouse mammary fat pads were removed from 6 to 8-week-old virgin female mice and minced into small pieces. After collagenase digestion at 37° C. in a shaking incubator in DMEM medium supplemented with 5% fetal calf serum (FBS), cells were sieved through a 70-μm cell strainer (BD Falcon) to obtain a single cell suspension. The cells were cultured in DMEM medium supplemented with 10% FBS and 10 ng/ml epithelial growth factor (EGF). At day 3 of culture, fibroblast cells were removed by a short digestion with 0.05% trypsin-EDTA as less adherent cells.
The primary cultures were then assayed for expressioin of FOXP3 protein by Western blotting cell lysates of the cultures with antibodies specific for FOXP3. The primary transcripts also were assayed for expression of FOXP3 by real-time PCR.

[10] = tested on: FoxP3 locus P2 and P10 sites; assay: ChIP of phospho-ATF2/phospho-c-Jun binding at the FoxP3 locus in 4T1 cells; assay type: cell-based, mouse
Description: as §3
In order to identify the FoxP3 sequence associated with p-ATF2 and p-c-Jun, the 5′ sequence of the FoxP3 gene was analyzed and 14 potential AP1 and CREB sites were identified. […]

[11] = tested on: FOXP3-encoding mRNA; assay: Induction of FOXP3-encoding mRNA in cancer cell lines (RT-PCR); assay type: cell-based; details: thymoma BW5147, thymic epithelial cell 61.7, breast cancer TSA, treated 14 hr to 2 days
Description: A method was developed to induce FOXP3 expression in cancer cells by activating JNK, P38 and ATF2. Briefly, breast cancer and thymoma cell lines were treated with activators of JNK, P38 and ATF2, such a emetine and anisomycin for 14 hr to 2 days. The cells were analyzed for expression of FOXP3-encoding mRNA by RT-PCR.

[12] = tested on: P10 probe (AP1 site of FoxP3 enhancer); assay: Electrophoretic mobility shift of P10 AP1 probe with 4T1 nuclear extracts; assay type: cell-based, mouse; details: nuclear extracts of anisomycin-treated 4T1 cells
From the text: Sequencing comparison identified a typical AP1 site within the P10. […] The sequence of nonmutated probe (P10) is […] (bold letters for core AP1 sequence; SEQ ID NO: 173), that for P10-Mt1 is […] (bold letter indicate mutations; SEQ ID NO: 174), while that for P10-Mt2 is […] (SEQ ID NO: 175).

[13] = tested on: TSA tumor cells; assay: TSA tumor in mammary fat pads of BALb/c mice; assay type: in vivo; details: intraperitoneal, every 3 days for 8 times, I mg/mouse
Description: To test whether induction of FoxP3 by ATF2-FoxP3 pathway can be explored for breast cancer therapy, cells (5×10^5) of the TSA cell line were injected into the mammary fat pads of BALb/c mice. Five days later, when the cancer cells established locally, the mice were intraperitoneally treated with vehicle control or anisomycin every 3 days for 8 times at a dose of I mg/mouse.

[14] = tested on: FOXP3; assay: FOXP3 silencing in HPEC: FOXP3 mRNA; assay type: cell-based, human; details: one week after infection
Description: (§4) To determine whether the endogenous FOXP3 in prostate epithelial cell lines is responsible for MYC repression, the FOXP3 locus was silenced with a lentiviral vector encoding shRNA for FOXP3. Human Prostate Epithelial Cells (HPEC) were purchased from Lonza Group Ltd (Switzerland) and were cultured with medium. An early passage of the HPEC were infected with lentivirus expressing either control shRNA or FOXP3 shRNA vector as described in Zuo et al., 2007, supra. Uninfected cells were removed by drug selection. At one week after infection, the levels of FOXP3 or MYC mRNA were quantitated by RT-PCR. Western blotting was also carried out using anti-FOXP3 or -MYC antibodies. Beta actin was used as a loading control.

[15] = tested on: MYC; assay: FOXP3 silencing in HPEC: MYC transcript; assay type: cell-based, human; details: one week after infection
Description: as §4

[16] = inhibitor 2 μg/ml with anisomycin 1 μg/ml

T1 sequence (P47811 whole entry): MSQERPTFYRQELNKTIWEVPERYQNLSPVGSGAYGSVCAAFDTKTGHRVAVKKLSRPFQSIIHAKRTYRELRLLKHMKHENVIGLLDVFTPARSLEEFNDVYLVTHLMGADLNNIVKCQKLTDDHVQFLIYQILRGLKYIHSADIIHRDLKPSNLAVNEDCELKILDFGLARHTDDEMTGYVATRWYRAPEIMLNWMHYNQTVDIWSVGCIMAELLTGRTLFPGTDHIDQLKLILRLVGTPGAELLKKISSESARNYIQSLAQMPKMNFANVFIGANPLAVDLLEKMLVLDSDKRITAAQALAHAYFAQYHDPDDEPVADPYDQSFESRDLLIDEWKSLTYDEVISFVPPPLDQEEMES

Nc1ncn([C@H]2C[C@H](O)[C@@H](CO)O2)c(=O)n1 [5-AZA, 5-aza-2′-deoxycytidine]
induction of the FOXP3 gene [1]: two-fold

CCCCCCCCCCCCCC(=O)O[C@@H]1[C@@H](C)[C@@]2(O)[C@@H](C=C(CO)C[C@]3(O)C(=O)C(C)=C[C@@H]23)[C@@H]2C(C)(C)[C@]12OC(C)=O [PMA]
activation of p38 [2]: activated | activation of c-Jun [3]: failed to activate | activation of ATF2 [4]: activated | activation of JNK [5]: failed to activate

C[S+]([O-])c1ccc(-c2nc(-c3ccncc3)c(-c3ccc(F)cc3)[nH]2)cc1 (stereo not shown) [SB]
inhibition of anisomycin-induced FoxP3 induction [6]: reduced, but did not eliminate | inhibition of ATF2 activation by anisomycin [4, 16]: only partially | inhibition of JNK activation by anisomycin [5, 16]: only partially

COc1ccc(C[C@H]2NC[C@H](O)[C@H]2OC(C)=O)cc1 [anisomycin]
IC50 (cancer cell killing) ([7]; 48 hours): 0.03 to 0.1 µg/mL | killing of cancer cells ([7]; within 48 hours): killed a substantial percentage of cancer cells | active caspase 3 in cells with less than 2C DNA contents [8]: increased expression of active caspase 3 | FOXP3 transcripts in ATF2+/+ epithelial cultures ([9]; ATF2+/+ primary mammary epithelial cells): further induced | FoxP3 transcripts in ATF2-/- cells ([9]; ATF2-/- primary mammary epithelial cells): completely refractory | inducibility of ATF2/cJun association with P2 site (ChIP) ([10]; P2, 4.8 kb 5′ of exon 1): not inducible | enhancement of ATF2/cJun binding to P10 site (ChIP) ([10]; P10, 4.2 kb 3′ of exon 1): more than 2 fold | induction of FOXP3-encoding mRNA [11]: strong induction | activation of p38 [2]: activated | activation of c-Jun [3]: activation | phospho-c-Jun in the nuclear fraction ([3]; anisomycin 2 hours): major increase | binding of nuclear extracts to nonmutated P10 probe (EMSA) [12]: strong interaction | side effects [13]: did not give obvious side effects | growth of TSA tumor cells in syngeneic mammary pad ([13]; from day 5): nearly completely abrogated | activation of ATF2 [4]: activated | phospho-ATF2 in the nuclear fraction ([4]; anisomycin 2 hours): major increase | activation of JNK [5]: activation

CC[C@H]1CN2CCc3cc(OC)c(OC)cc3[C@@H]2C[C@@H]1C[C@H]1NCCc2cc(OC)c(OC)cc21 [emetine]
induction of FOXP3-encoding mRNA [11]: strong induction

FoxP3 shRNA: lentiviral shRNA specific for FoxP3 used in mouse TSA cells (SEQ ID NO: 168) (AAGCCATGGCAATAGTTCCTT)
expression of FOXP3 mRNA [14]: major reduction | level of MYC transcript [15]: significantly elevated
